Data set [1] has as its target Acetylcholinesterase (Electrophorus electricus) (UniProt O42275). The data set can be described thus: Inhibition of electric eel AChE at 10^-6 M preincubated for 15 mins followed by acetylthiocholine iodide substrate addition measured for 5 mins by Ellman's spectrophotometric method relative to control. A general note: Ellman's reagent forms a yellow product with free thiols.

The target is the same in data set [2]. Description: Inhibition of electric eel AChE at 10^-3 M preincubated for 15 mins followed by acetylthiocholine iodide substrate addition measured for 5 mins by Ellman's spectrophotometric method relative to control.
Data set [3] shares this target. Description: Inhibition of electric eel AChE at 10^-4 M preincubated for 15 mins followed by acetylthiocholine iodide substrate addition measured for 5 mins by Ellman's spectrophotometric method relative to control.
In a further data set the target is Acetylcholinesterase (Electrophorus electricus, UniProt O42275). The data set can be described thus: Inhibition of electric eel AChE preincubated for 15 mins followed by acetylthiocholine iodide substrate addition measured for 5 mins by Ellman's spectrophotometric method.
Data set [4] can be described thus: Cytotoxicity against mouse NIH/3T3 cells after 24 hrs by MTT assay. The conditions noted are these: nih3t3.

Each structure is given as a SMILES string.

Broadly, the inhibition is the drop in the measured response relative to a control, in per cent. Low readings indicate little suppression, high ones strong suppression. The term IC50 denotes the concentration that inhibits the measured activity by half.

Sequence of Acetylcholinesterase (Electrophorus electricus) (O42275 24-633 limits assumed): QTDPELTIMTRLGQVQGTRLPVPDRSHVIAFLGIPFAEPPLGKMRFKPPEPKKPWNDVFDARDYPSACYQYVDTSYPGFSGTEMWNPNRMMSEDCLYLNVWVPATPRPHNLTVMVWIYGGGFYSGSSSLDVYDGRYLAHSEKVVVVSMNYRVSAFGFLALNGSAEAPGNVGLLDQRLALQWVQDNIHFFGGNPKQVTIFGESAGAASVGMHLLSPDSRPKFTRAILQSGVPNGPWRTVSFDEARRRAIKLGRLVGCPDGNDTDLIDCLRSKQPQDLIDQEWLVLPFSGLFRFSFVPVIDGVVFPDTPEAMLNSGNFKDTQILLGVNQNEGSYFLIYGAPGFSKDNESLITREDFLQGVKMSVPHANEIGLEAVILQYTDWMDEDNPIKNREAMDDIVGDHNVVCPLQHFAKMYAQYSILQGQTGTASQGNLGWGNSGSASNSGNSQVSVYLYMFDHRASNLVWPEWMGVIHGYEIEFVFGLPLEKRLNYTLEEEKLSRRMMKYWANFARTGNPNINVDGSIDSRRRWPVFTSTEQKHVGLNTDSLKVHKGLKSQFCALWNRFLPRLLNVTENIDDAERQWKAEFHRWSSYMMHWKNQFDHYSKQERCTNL
Sequence of Acetylcholinesterase (O42275 whole entry): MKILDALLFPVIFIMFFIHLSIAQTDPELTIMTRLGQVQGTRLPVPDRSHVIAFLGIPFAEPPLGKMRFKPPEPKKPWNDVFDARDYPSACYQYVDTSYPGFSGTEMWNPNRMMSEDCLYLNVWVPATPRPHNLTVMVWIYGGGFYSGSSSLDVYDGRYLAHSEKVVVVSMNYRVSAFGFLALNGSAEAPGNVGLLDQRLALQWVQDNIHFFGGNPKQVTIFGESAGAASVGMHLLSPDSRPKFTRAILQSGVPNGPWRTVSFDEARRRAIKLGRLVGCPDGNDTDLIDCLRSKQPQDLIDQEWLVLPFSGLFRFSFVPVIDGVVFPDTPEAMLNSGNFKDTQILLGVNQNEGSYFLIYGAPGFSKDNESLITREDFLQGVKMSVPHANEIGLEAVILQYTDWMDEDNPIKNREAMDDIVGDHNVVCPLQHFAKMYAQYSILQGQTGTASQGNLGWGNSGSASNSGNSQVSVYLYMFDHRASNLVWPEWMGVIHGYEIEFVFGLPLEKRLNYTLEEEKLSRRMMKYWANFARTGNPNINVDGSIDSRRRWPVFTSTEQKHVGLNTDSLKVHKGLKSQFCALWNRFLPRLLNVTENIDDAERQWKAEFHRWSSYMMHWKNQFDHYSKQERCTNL

As for `COc1ccc2nc(NC(=O)CN3CCN(Cc4ccc(Cl)cc4)CC3)sc2c1`, the inhibition in data set [1] was over 50%; in data set [2] it was over 95%; in data set [3] it was 90%. On Acetylcholinesterase, this compound showed an IC50 of 220 nM.

In data set [1], `COc1cc2nc(NC(=O)CN3CCN(Cc4ccc(Cl)cc4)CC3)sc2cc1OC` returned an inhibition of over 50%. Besides, at Acetylcholinesterase, 130 nM corresponded to half-maximal inhibition (IC50).

The compound `COc1cc2c(cc1OC)C(=O)C(CC1CCN(Cc3ccccc3)CC1)C2` (configuration not stated) [DONEPEZIL] yielded an IC50 at 24 h in data set [4] of 316000 nM.

Compound `COc1cc2nc(NC(=O)CN3CCN(Cc4ccc(F)cc4)CC3)sc2cc1OC` came in with an inhibition in data set [1] of over 50%. At Acetylcholinesterase, this compound yielded an IC50 of 175 nM.

As to `COc1ccc(CN2CCN(CC(=O)Nc3nc4ccc(OC)cc4s3)CC2)cc1`, in data set [1], the inhibition is over 50%. This compound also showed a concentration for half-maximal inhibition (IC50) on Acetylcholinesterase of 396 nM.

Turning to `COc1cc2nc(NC(=O)CN3CCN(Cc4ccc(C(F)(F)F)cc4)CC3)sc2cc1OC`, the inhibition in data set [1] was over 50%. At Acetylcholinesterase, this compound came in with an IC50 of 198 nM.

In the case of `COc1ccc(CN2CCN(CC(=O)Nc3nc4cc(OC)c(OC)cc4s3)CC2)cc1`, the inhibition in data set [1] was over 50%. Besides, on Acetylcholinesterase, the IC50 stood at 252 nM.

`COc1ccc2nc(NC(=O)CN3CCN(Cc4ccc(C)cc4)CC3)sc2c1`: the inhibition in data set [1] is over 50%. In addition, the concentration for half-maximal inhibition (IC50) on Acetylcholinesterase stood at 326 nM.

The record behind these values is ChEMBL document CHEMBL3864165, “Design, synthesis, and AChE inhibitory activity of new benzothiazole-piperazines” (Bioorg Med Chem Lett, 2016).
